Reference: patent US12195730B2, “High-throughput screening methods to identify small molecule targets” (A-Alpha Bio, Inc., priority 2020, dated 2025)

Legend:
[1] = target: interaction between FKBP12 and the FRB domain of TOR (Homo sapiens, UniProt P42345+P62942); assay: AlphaSeq yeast mating assay, effect of small molecule agonists on FKBP12/FRB interaction; settings: FIG. 6B; increasing compound concentration correlates with increasing mating efficiency
[2] = system: interaction of IKZF1 with mutant CRBN; assay: AlphaSeq assay, effect of thalidomide and analogs on mutant CRBN/IKZF1 interaction; type: cell-based; settings: FIG. 7B
Excerpt: (§1) FIG. 7A is a schematic illustrating thalidomide, or its analogs, mediating the interaction between CRBN and IKZF1.

[3] = target: T1, interaction of IKZF1 with wild-type CRBN (Homo sapiens, UniProt Q96SW2); assay: AlphaSeq assay, effect of thalidomide and analogs on wild-type CRBN/IKZF1 interaction; type: cell-based; settings: FIG. 7B
T1 construct: expressed in transfected cells; host or cells: recombinant haploid yeast cells (surface display)
Excerpt: as §1

Chain of interaction between FKBP12 and the FRB domain of TOR (P62942 whole entry, the tested form may be a part): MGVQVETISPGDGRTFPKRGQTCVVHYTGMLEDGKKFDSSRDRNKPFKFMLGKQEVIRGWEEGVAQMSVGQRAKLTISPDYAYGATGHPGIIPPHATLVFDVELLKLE
Chain of interaction between FKBP12 and the FRB domain of TOR (P42345 2012-2144 limits assumed): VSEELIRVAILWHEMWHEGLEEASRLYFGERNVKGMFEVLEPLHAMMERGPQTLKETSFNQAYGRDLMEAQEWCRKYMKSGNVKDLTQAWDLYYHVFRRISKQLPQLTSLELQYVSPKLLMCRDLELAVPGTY
T1 sequence (Q96SW2 whole entry): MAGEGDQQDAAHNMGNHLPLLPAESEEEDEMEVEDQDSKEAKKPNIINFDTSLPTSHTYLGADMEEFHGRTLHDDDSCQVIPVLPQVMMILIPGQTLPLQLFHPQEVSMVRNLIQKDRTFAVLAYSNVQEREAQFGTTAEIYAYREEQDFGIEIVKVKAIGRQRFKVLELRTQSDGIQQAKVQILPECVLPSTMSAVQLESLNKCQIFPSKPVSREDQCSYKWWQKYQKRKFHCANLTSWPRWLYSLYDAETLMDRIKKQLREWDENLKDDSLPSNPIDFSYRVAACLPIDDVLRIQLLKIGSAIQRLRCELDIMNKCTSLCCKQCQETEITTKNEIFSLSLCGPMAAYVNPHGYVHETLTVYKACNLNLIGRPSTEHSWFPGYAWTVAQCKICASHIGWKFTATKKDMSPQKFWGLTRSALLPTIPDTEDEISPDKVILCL
T1 sequence (Q13422 whole entry partner): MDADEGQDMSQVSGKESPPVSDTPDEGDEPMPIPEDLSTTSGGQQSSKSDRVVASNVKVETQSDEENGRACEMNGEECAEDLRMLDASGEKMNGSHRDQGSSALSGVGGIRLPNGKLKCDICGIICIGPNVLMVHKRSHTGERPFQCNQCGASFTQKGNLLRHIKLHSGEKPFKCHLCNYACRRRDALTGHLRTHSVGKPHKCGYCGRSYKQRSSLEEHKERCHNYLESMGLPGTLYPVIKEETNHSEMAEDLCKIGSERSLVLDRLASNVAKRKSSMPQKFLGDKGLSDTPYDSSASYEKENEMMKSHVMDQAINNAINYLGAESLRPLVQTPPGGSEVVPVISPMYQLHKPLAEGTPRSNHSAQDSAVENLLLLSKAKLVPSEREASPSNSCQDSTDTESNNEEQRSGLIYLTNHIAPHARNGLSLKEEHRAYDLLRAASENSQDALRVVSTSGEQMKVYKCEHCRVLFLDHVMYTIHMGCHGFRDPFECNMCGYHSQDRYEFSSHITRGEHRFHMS

CO[C@H]1C[C@@H]2CC[C@@H](C)[C@@](O)(O2)C(=O)C(=O)N2CCCC[C@H]2C(=O)O[C@H]([C@H](C)C[C@@H]2CC[C@@H](OCCO)[C@H](OC)C2)CC(=O)[C@H](C)/C=C(\C)[C@@H](O)[C@@H](OC)C(=O)[C@H](C)C[C@H](C)/C=C/C=C/C=C/1C [everolimus]
effect on the interaction between FKBP12 and the FRB domain (mating efficiency) [1]: agonistic effect

Nc1cccc2c1C(=O)N(C1CCC(=O)NC1=O)C2=O (stereo not drawn) [pomalidomide]
effect on the interaction of IKZF1 with mutant CRBN [2]: not mutant CRBN
effect on the interaction of IKZF1 with wild-type CRBN [3]: agonistic effect

CO[C@H]1C[C@@H]2CC[C@@H](C)[C@@](O)(O2)C(=O)C(=O)N2CCCC[C@H]2C(=O)O[C@H]([C@H](C)C[C@@H]2CC[C@@H](OP(C)(C)=O)[C@H](OC)C2)CC(=O)[C@H](C)/C=C(\C)[C@@H](O)[C@@H](OC)C(=O)[C@H](C)C[C@H](C)/C=C/C=C/C=C/1C [ridaforolimus]
effect on the interaction between FKBP12 and the FRB domain (mating efficiency) [1]: agonistic effect

O=C1CCC(N2C(=O)c3ccccc3C2=O)C(=O)N1 (stereo not drawn) [thalidomide]
effect on the interaction of IKZF1 with mutant CRBN [2]: not mutant CRBN
effect on the interaction of IKZF1 with wild-type CRBN [3]: agonistic effect
